# US8518945B2, “Pyrrolopyrazine kinase inhibitors” (Hoffmann-La Roche Inc., priority 2010, dated 2013)
# Target: T1, h-jak3(810-1124) (JAK3: Recombinant human kinase domain) (Homo sapiens, UniProt P52333)
# T1 construct: jak3(810- 1124)-sf9-c; made in house; host or cells: Sf9
# Test: Determination of IC50 of Janus Kinase (JAK) inhibition: JAK3 radioactive end-point 33P-ATP kinase assay
# Assay type: biochemical
# Settings: no additive; ATP 1.5 uM, peptide 50 uM, 20 minutes, room temperature; read-out: Ic50 h-jak3(810-1124)-sf9-c: no additive
# T1 sequence (P52333 810-1124): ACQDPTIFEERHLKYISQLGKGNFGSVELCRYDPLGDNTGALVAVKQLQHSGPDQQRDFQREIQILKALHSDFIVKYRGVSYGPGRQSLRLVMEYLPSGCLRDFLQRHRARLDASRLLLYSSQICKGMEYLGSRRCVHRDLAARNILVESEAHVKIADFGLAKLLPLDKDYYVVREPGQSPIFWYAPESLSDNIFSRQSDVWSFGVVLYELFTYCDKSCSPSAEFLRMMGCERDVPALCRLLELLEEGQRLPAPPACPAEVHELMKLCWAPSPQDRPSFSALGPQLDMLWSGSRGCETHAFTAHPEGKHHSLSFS
row,Compound,IC50
1,"CC(C)(C)[C@@H](NC(=O)c1c[nH]c2ncc(-c3cnn(C4CC4)c3)nc12)C(=O)N1CCC(C#N)CC1 [Example I-78, 2-(1-Cyclopropyl-1H-pyrazol-4-yl)-5H-pyrrolo[2,3-b]pyrazine-7-carboxylic acid [(R)-1-(4-cyano-piperidine-1-carbonyl)-2,2-dimethyl-propyl]-amide]",≤ 0.32 nM
2,"CC(C)(C)[C@@H](NC(=O)c1c[nH]c2ncc(C3CC3)nc12)C(=O)N1CCC(C(F)(F)F)CC1 [Example I-58, 2-Cyclopropyl-5H-pyrrolo[2,3-b]pyrazine-7-carboxylic acid [(R)-2,2-dimethyl-1-(4-trifluoromethyl-piperidine-1-carbonyl)-propyl]-amide]",0.49 nM
3,"CCn1cc(-c2cnc3[nH]cc(C(=O)N[C@@H](C(=O)N4CCC(C#N)CC4)C4CC4)c3n2)cn1 [Example I-71, 2-(1-Ethyl-1H-pyrazol-4-yl)-5H-pyrrolo[2,3-b]pyrazine-7-carboxylic acid [(R)-2-(4-cyano-piperidin-1-yl)-1-cyclopropyl-2-oxo-ethyl]-amide]",3.92 nM
4,"N#CC1CCN(C(=O)[C@H](NC(=O)c2c[nH]c3ncc(-c4cn(C5CCCC5)cn4)nc23)C2CC2)CC1 [Example I-121, 2-(1-Cyclopentyl-1H-imidazol-4-yl)-5H-pyrrolo[2,3-b]pyrazine-7-carboxylic acid [(R)-2-(4-cyano-piperidin-1-yl)-1-cyclopropyl-2-oxo-ethyl]-amide]",1.67 nM
5,"CC(C)(C)[C@@H](NC(=O)c1c[nH]c2ncc(-c3cnn(CC(F)(F)F)c3)nc12)C(=O)N1CCC(C#N)CC1 [Example I-79, 2-[1-(2,2,2-Trifluoro-ethyl)-1H-pyrazol-4-yl]-5H-pyrrolo[2,3-b]pyrazine-7-carboxylic acid [(R)-1-(4-cyano-piperidine-1-carbonyl)-2,2-dimethyl-propyl]-amide]",≤ 0.32 nM
6,"CCn1cc(-c2cnc3[nH]cc(C(=O)N[C@@H](C(=O)N4CC(C)(O)C4)C4CC4)c3n2)cn1 [Example I-148, 2-(1-Ethyl-1H-pyrazol-4-yl)-5H-pyrrolo[2,3-b]pyrazine-7-carboxylic acid [(R)-1-cyclopropyl-2-(3-hydroxy-3-methyl-azetidin-1-yl)-2-oxo-ethyl]-amide]",1.98 nM
7,"CC[C@@H](C)[C@@H](NC(=O)c1c[nH]c2ncc(C3CC3)nc12)C(=O)N1CCC(C#N)CC1 [Example I-149, 2-Cyclopropyl-5H-pyrrolo[2,3-b]pyrazine-7-carboxylic acid [(1R,2R)-1-(4-cyano-piperidine-1-carbonyl)-2-methyl-butyl]-amide]",1.27 nM
8,"N#CC1CCN(C(=O)[C@H](NC(=O)c2c[nH]c3ncc(C4CC4)nc23)C2CCCC2)CC1 [Example I-45, 2-Cyclopropyl-5H-pyrrolo[2,3-b]pyrazine-7-carboxylic acid [(R)-2-(4-cyano-piperidin-1-yl)-1-cyclopentyl-2-oxo-ethyl]-amide]",0.7 nM
9,"N#CC1CN(C(=O)[C@H](NC(=O)c2c[nH]c3ncc(C4CC4)nc23)C2CC2)C1 [Example I-68, 2-Cyclopropyl-5H-pyrrolo[2,3-b]pyrazine-7-carboxylic acid [(R)-2-(3-cyano-azetidin-1-yl)-1-cyclopropyl-2-oxo-ethyl]-amide]",0.58 nM
10,"N#CC1CN(C(=O)[C@H](NC(=O)c2c[nH]c3ncc(-c4cn(-c5cc(F)cc(F)c5F)cn4)nc23)C2CC2)C1 [Example I-133, 2-[1-(2,3,5-Trifluoro-phenyl)-1H-imidazol-4-yl]-5H-pyrrolo[2,3-b]pyrazine-7-carboxylic acid [(R)-2-(3-cyano-azetidin-1-yl)-1-cyclopropyl-2-oxo-ethyl]-amide]",1.67 nM
11,"Cn1cc(-c2cnc3[nH]cc(C(=O)N[C@@H](C(=O)N4CC(C)(C#N)C4)C4CC4)c3n2)cn1 [Example I-142, 2-(1-Methyl-1H-pyrazol-4-yl)-5H-pyrrolo[2,3-b]pyrazine-7-carboxylic acid [(R)-2-(3-cyano-3-methyl-azetidin-1-yl)-1-cyclopropyl-2-oxo-ethyl]-amide]",0.47 nM
12,"CC1CCN(C(=O)[C@@H](C)NC(=O)c2c[nH]c3ncc(C4CC4)nc23)C1 (stereo partly drawn) [Example I-15, 2-Cyclopropyl-5H-pyrrolo[2,3-b]pyrazine-7-carboxylic acid [(R)-1-methyl-2-(3-methyl-pyrrolidin-1-yl)-2-oxo-ethyl]-amide]",54.9 nM
13,"Cn1cc(-c2cnc3[nH]cc(C(=O)N[C@@H](C(=O)N4CC[C@@H](C#N)C4)C(C)(C)C)c3n2)cn1 [Example I-60, 2-(1-Methyl-1H-pyrazol-4-yl)-5H-pyrrolo[2,3-b]pyrazine-7-carboxylic acid [(R)-1-((R)-3-cyano-pyrrolidine-1-carbonyl)-2,2-dimethyl-propyl]-amide]",0.79 nM
14,"C[C@@H](NC(=O)c1c[nH]c2ncc(-c3cccc(C(=O)NCC4CC4)c3)nc12)C(=O)N1CC(C#N)C1 [Example I-112, 2-[3-(Cyclopropylmethyl-carbamoyl)-phenyl]-5H-pyrrolo[2,3-b]pyrazine-7-carboxylic acid [(R)-2-(3-cyano-azetidin-1-yl)-1-methyl-2-oxo-ethyl]-amide]",0.97 nM
15,"CC(C)(C)[C@@H](NC(=O)c1c[nH]c2ncc(C3CC3)nc12)C(=O)N1CCC(C#N)CC1 [Example I-35, 2-Cyclopropyl-5H-pyrrolo[2,3-b]pyrazine-7-carboxylic acid [(R)-1-(4-cyano-piperidine-1-carbonyl)-2,2-dimethyl-propyl]-amide]",0.68 nM
16,"Cn1cc(-c2cnc3[nH]cc(C(=O)N[C@@H](C(=O)N4CC5(COC5)C4)C4CC4)c3n2)cn1 [Example I-85, 2-(1-Methyl-1H-pyrazol-4-yl)-5H-pyrrolo[2,3-b]pyrazine-7-carboxylic acid [(R)-1-cyclopropyl-2-(2-oxa-6-aza-spiro[3.3]hept-6-yl)-2-oxo-ethyl]-amide]",0.85 nM
17,"N#CC1CN(C(=O)[C@H](NC(=O)c2c[nH]c3ncc(-c4cc5nccc(N6CCCC6)c5s4)nc23)C2CC2)C1 [Example I-97, 2-(7-Pyrrolidin-1-yl-thieno[3,2-b]pyridin-2-yl)-5H-pyrrolo[2,3-b]pyrazine-7-carboxylic acid [(R)-2-(3-cyano-azetidin-1-yl)-1-cyclopropyl-2-oxo-ethyl]-amide]",3.91 nM
18,"N#CC1CN(C(=O)[C@H](NC(=O)c2c[nH]c3ncc(-c4cc5nccc(OCC(F)(F)F)c5s4)nc23)C2CC2)C1 [Example I-98, 2-[7-(2,2,2-Trifluoro-ethoxy)-thieno[3,2-b]pyridin-2-yl]-5H-pyrrolo[2,3-b]pyrazine-7-carboxylic acid [(R)-2-(3-cyano-azetidin-1-yl)-1-cyclopropyl-2-oxo-ethyl]-amide]",2.16 nM
19,"COC1CCN(C(=O)[C@@H](C)NC(=O)c2c[nH]c3ncc(C4CC4)nc23)C1 (stereo partly drawn) [Example I-9, 2-Cyclopropyl-5H-pyrrolo[2,3-b]pyrazine-7-carboxylic acid [(R)-2-(3-methoxy-pyrrolidin-1-yl)-1-methyl-2-oxo-ethyl]-amide]",52.9 nM
20,"CC(C)(C)[C@@H](NC(=O)c1c[nH]c2ncc(-c3cn[nH]c3)nc12)C(=O)N1CCC(C#N)CC1 [Example I-54, 2-(1H-Pyrazol-4-yl)-5H-pyrrolo[2,3-b]pyrazine-7-carboxylic acid [(R)-1-(4-cyano-piperidine-1-carbonyl)-2,2-dimethyl-propyl]-amide]",14.9 nM
21,"CC(C)(C)c1ccnc(-c2cnc3[nH]cc(C(=O)N[C@@H](C(=O)N4CCC(C#N)CC4)C4CC4)c3n2)c1 [Example I-145, 2-(4-tert-Butyl-pyridin-2-yl)-5H-pyrrolo[2,3-b]pyrazine-7-carboxylic acid [(R)-2-(4-cyano-piperidin-1-yl)-1-cyclopropyl-2-oxo-ethyl]-amide]",15.2 nM
22,"N#CC1CN(C(=O)[C@H](NC(=O)c2c[nH]c3ncc(N4Cc5c(Cl)cccc5C4=O)nc23)C2CC2)C1 [Example I-95, 2-(4-Chloro-1-oxo-1,3-dihydro-isoindol-2-yl)-5H-pyrrolo[2,3-b]pyrazine-7-carboxylic acid [(R)-2-(3-cyano-azetidin-1-yl)-1-cyclopropyl-2-oxo-ethyl]-amide]",2.73 nM

# System: not given
# Test: not given
# Settings: not given
row,Compound,melting point
1,"CC(C)[C@@H](NC(=O)c1c[nH]c2ncc(C3CC3)nc12)C(=O)N1CCCC1 [Example 24, 2-Cyclopropyl-5H-pyrrolo[2,3-b]pyrazine-7-carboxylic acid [(R)-2-methyl-1-(pyrrolidine-1-carbonyl)-propyl]-amide]",171 to 172.1 °C
2,"Cc1nc(-c2cnc3[nH]cc(C(=O)N[C@@H](C(=O)N4CC(C#N)C4)C(C)(C)C)c3n2)cn1-c1cccc(F)c1 [Example 137, 2-[1-(3-Fluorophenyl)-2-methyl-1H-imidazol-4-yl]-5H-pyrrolo[2,3-b]pyrazine-7-carboxylic acid [(R)-1-(3-cyano-azetidine-1-carbonyl)-2,2-dimethyl-propyl]-amide]",171 to 176 °C
3,"CC(C)(C)[C@@H](NC(=O)c1c[nH]c2ncc(C3CC3)nc12)C(=O)N1CCCC1 [Example 1, 2-Cyclopropyl-5H-pyrrolo[2,3-b]pyrazine-7-carboxylic acid [(R)-2,2-dimethyl-1-(pyrrolidine-1-carbonyl)-propyl]-amide]",201 to 203 °C
4,"N#CC1CN(C(=O)[C@H](NC(=O)c2c[nH]c3ncc(-c4ccc(N5CCOCC5)cc4)nc23)C2CC2)C1 [Example 145, 2-(4-Morpholin-4-yl-phenyl)-5H-pyrrolo[2,3-b]pyrazine-7-carboxylic acid [(R)-2-(3-cyano-azetidin-1-yl)-1-cyclopropyl-2-oxo-ethyl]-amide]",186 to 192 °C
5,"N#CC1CN(C(=O)[C@H](NC(=O)c2c[nH]c3ncc(-c4ccc(C(F)(F)F)cc4)nc23)C2CC2)C1 [Example 142, 2-(4-Trifluoromethyl-phenyl)-5H-pyrrolo[2,3-b]pyrazine-7-carboxylic acid [(R)-2-(3-cyano-azetidin-1-yl)-1-cyclopropyl-2-oxo-ethyl]-amide]",207 to 209 °C
